Data published in patent publication US20260344673A1, “A SOLID FORM FOR PREPARATION OF AN AQUEOUS DISPERSION, AQUEOUS DISPERSION, STABLE CONCENTRATE, COMBINED AQUEOUS DISPERSION, AND USES THEREOF” (priority 2022, published 2026).

Tests used:
[1] = test system: Sclerotinia sclerotiorum; test: Field trial oilseed rape, efficacy against Sclerotinia sclerotiorum; format: in vivo; details: field conditions, tank-mix, control (no treatment) 6.28
Description: (§1) The rates of application (use) of the composition of the present invention (MFA) vary according to type of use, type of crop, the specific active ingredient in the combination, but is such that the active ingredient in the combination is an effective amount to provide the desired action (such as disease control). The application rate of the composition for a given set of conditions can readily be determined by trials.
(§2) Field trials were conducted in Poland according to approved EPPO guidelines: PP 1/135(4), PP 1/152(4), PP 1/181(4) (general), PP 1/1(4) (sugar beet), PP 1/28 (3), PP 1/26(4) (winter wheat), PP 1/78(4) (oilseed), PP1/263 (1), PP1/16 (3) (strawberry), PP 1/2 (5), PP 1/263 (1) (potato). The spray volumes were in line with farmers' practice, varying between 200-300 l/ha. The applications were processed as per the EPPO guideline specific for each crop.

[2] = test system: Phoma lingam; test: Field trial oilseed rape, efficacy against Phoma lingam; format: in vivo; details: field conditions, tank-mix, control (no treatment) 4.18
Description: as §1, §2

[3] = test system: oilseed rape; test: Field trial oilseed rape, plant biomass and yield quality/quantity parameters; format: in vivo; details: field conditions; for The Thousand Grain Weight (TGW): Tables 31-33, control 5.64; for Bulk density: control 0.65; for Yield: control 25.49; for Biomass: control 90.00
Description: as §2

[4] = test system: Zymoseptoria tritici; test: Field trial winter wheat, efficacy against Zymoseptoria tritici; format: in vivo; details: field conditions, tank-mix, control (no treatment) 4.68
Description: as §1, §2

[5] = test system: winter wheat; test: Field trial winter wheat, plant biomass and yield parameters; format: in vivo; details: field conditions; for Bulk density: control 0.67; for The Thousand Grain Weight (TGW): control 41.90; for Yield: control 76.50; for Biomass: control 157.50
Description: as §2

[6] = test system: Peronospora manshurica; test: Field trial soya, efficacy against Peronospora manshurica; format: in vivo; details: field conditions, tank-mix, control (no treatment) 5.66
Description: as §1, §2

[7] = test system: Colletotrichum spp.; test: Field trial soya, efficacy against Colletotrichum spp.; format: in vivo; details: field conditions, tank-mix, control (no treatment) 4.21
[8] = test system: soya; test: Field trial soya, plant biomass and yield parameters; format: in vivo; details: field conditions; for Bulk density: control 0.728; for Yield: control 37.41; for Biomass: control 190.0; for The Thousand Grain Weight (TGW): control 205.3
Description: as §2

[9] = test system: Erwinia sp.; test: Kirby-Bauer disk diffusion test, bacterial pathogens (inhibition zones, halo effect); details: Nutrient Agar, tank-mixes; for Efficacy %: control 0.00; for Erwinia sp. bacterial growth: control 3.5 mm
[10] = test system: selected pathogens (fungi); details: vs commercial fungicide
[11] = test system: Colletotrichum gloeosporioides; test: Kirby-Bauer disk diffusion test, Colletotrichum gloeosporioides; details: Colletotrichum gloeosporioides
Description: (§3) The microbiological tests were carried out by applying Kirby-Bauer Disk Diffusion Susceptibility Test Protocol for antimicrobial activity. It is based on the formation of a concentration gradient in the growth medium during the diffusion of the active substance from the antibiogram disc (Kirby-Bauer method).
(§4) The performance of the embodiments of the present inventions and their mixtures enriched with millbase (MFA) was analysed against the appropriate reference substance, i.e., a commercial product containing the analogue active substance with the same concentration. The prepared solutions were applied on the paper antibiograms. Then the soaked antibiograms were placed on the Petri Dishes (dish diameter 90 mm) with the growth medium for fungal pathogens V8. Composition of V8: agar, calcium carbonate and multi-vegetable juice. 3 fragments of mycelium of the tested pathogen (5×5 mm) were transplanted onto the prepared medium. As a result, the zones where the fungal growth was inhibited have been measured and compared respectively with the control sample and the analogue active substance sample.
(§5) Assessment was carried out by determining the infested area of the Petri dish in %. These percentages have been converted into efficacy (W) according to Abbot's formula as follows: W=(1−α/β)×100 • where: • α—corresponds to the mycelium/bacterial growth of each tested sample [%], • β—corresponds to the mycelium/bacterial growth in control sample [%].
(§6) In order to estimate if the combined action effect with the commercial fungicide, the W parameter of the mixture was compared with W parameter for particular commercial fungicide solo. Where W=0 the efficacy of the control sample (whole Petri dish covered with mycelium), and W=100 is when no mycelium growth observed.

[12] = test system: Fusarium oxysporum; test: Kirby-Bauer disk diffusion test, Fusarium oxysporum; details: Fusarium oxysporum
Description: as §3, §4, §5, §6

[13] = test system: Phytophthora megasperma; test: Kirby-Bauer disk diffusion test, Phytophthora megasperma; details: Phytophthora megasperma
Description: as §3, §4, §5, §6

[14] = test system: Venturia inaegualis; test: Kirby-Bauer disk diffusion test, Venturia inaequalis; details: Venturia inaegualis
Description: as §3, §4, §5, §6

[15] = test system: Alternaria infectoria/alternata; test: Kirby-Bauer disk diffusion test, Alternaria infectoria/alternata
Description: as §4, §5, §6

[16] = test system: Sclerotinia sclerotiorum; test: Kirby-Bauer disk diffusion test, Sclerotinia sclerotiorum
Description: as §4, §5, §6

[17] = test system: Septoria tritici; test: Kirby-Bauer disk diffusion test, Septoria tritici
Description: as §4, §5, §6

[18] = test system: Septoria nodorum (1291); test: Kirby-Bauer disk diffusion test, Septoria nodorum (1291)
Description: as §4, §5, §6

[19] = test system: Botrytis cinerea; test: Kirby-Bauer disk diffusion test, Botrytis cinerea
Description: as §4, §5, §6

[20] = test system: Fusarium equiseti; test: Kirby-Bauer disk diffusion test, Fusarium equiseti
Description: as §4, §5, §6

[21] = test system: Phytophthora cactorum; test: Kirby-Bauer disk diffusion test, Phytophthora cactorum; parameters: % mycelium growth relative to the control: concentration or dose not given beside the values
Description: as §4, §5, §6

[22] = test system: Monilinia fructigena; test: Kirby-Bauer disk diffusion test, Monilinia fructigena
Description: as §4, §5, §6

[23] = test system: Phytium ultimum; test: Kirby-Bauer disk diffusion test, Phytium ultimum
Description: as §4, §5, §6

[24] = test system: Verticillium longisporum; test: Kirby-Bauer disk diffusion test, Verticillium longisporum
Description: as §4, §5, §6

CC1(C)CCC(Cc2ccc(Cl)cc2)C1(O)Cn1cncn1 (centres unmarked) [Metconazole (90)]
Efficacy Sclerotinia sclerotiorum [1]: 4.11 scale 0-10
Efficacy Phoma lingam [2]: 2.99 scale 0-10
The Thousand Grain Weight (TGW) [3]: 6.13 g
Bulk density [3]: 0.67 kg/L
Yield [3]: 33.63 dt/ha
Biomass [3]: 152.50 dt/ha
Efficacy Zymoseptoria tritici [4]: 3.11 scale 0-10
Bulk density [5]: 0.67 kg/L
The Thousand Grain Weight (TGW) [5]: 46.20 g
Yield [5]: 78.95 dt/ha
Biomass [5]: 172.50 dt/ha
Efficacy Peronospora manshurica [6]: 3.13 scale 0-10
Efficacy Colletotrichum spp. [7]: 2.31 scale 0-10
Bulk density [8]: 0.724 kg/L
Yield [8]: 32.86 dt/ha
Biomass [8]: 146.7 dt/ha
The Thousand Grain Weight (TGW) [8]: 207.0 g

CCCN(CCOc1c(Cl)cc(Cl)cc1Cl)C(=O)n1ccnc1 [Prochloraz (450)]
Efficacy % [9]: 0.00%
Erwinia sp. bacterial growth [9]: 3.5 mm
Efficacy Sclerotinia sclerotiorum [1]: 4.17 scale 0-10
Efficacy Phoma lingam [2]: 3.11 scale 0-10
The Thousand Grain Weight (TGW) [3]: 5.72 g
Bulk density [3]: 0.68 kg/L
Yield [3]: 30.06 dt/ha
Biomass [3]: 125.00 dt/ha
Efficacy Zymoseptoria tritici [4]: 3.37 scale 0-10
Bulk density [5]: 0.65 kg/L
The Thousand Grain Weight (TGW) [5]: 46.90 g
Yield [5]: 71.51 dt/ha
Biomass [5]: 157.50 dt/ha
Efficacy Peronospora manshurica [6]: 3.37 scale 0-10
Efficacy Colletotrichum spp. [7]: 2.79 scale 0-10
Bulk density [8]: 0.743 kg/L
Yield [8]: 41.37 dt/ha
Biomass [8]: 176.7 dt/ha
The Thousand Grain Weight (TGW) [8]: 211.5 g

N#Cc1c[nH]cc1-c1cccc2c1OC(F)(F)O2 [Fludioxonil, fludioxonil]
effectiveness in reducing the development of pathogens (in words) [10]: completely inhibited fungal growth

COC=C(C(=O)OC)c1ccccc1Oc1cc(Oc2ccccc2C#N)ncn1 [Azoxystrobin (250)]
% mycelium growth relative to the control ([11]; V8 medium): 50%
mycelium growth ([11]; V8 medium, control 5.4 cm): 2.7 cm
EFFICACY W (Abbot) ([11]; control W=0, no growth W=100): 50
% mycelium growth relative to the control ([12]; V8 medium): 100%
mycelium growth ([12]; V8 medium, control 8.6 cm): 8.6 cm
EFFICACY W (Abbot) ([12]; control W=0, no growth W=100): 0
% mycelium growth relative to the control ([13]; V8 medium): 70%
mycelium growth ([13]; V8 medium, control 5.4 cm (8.6 cm in Table 25)): 3.8 cm
EFFICACY W (Abbot) ([13]; control W=0, no growth W=100): 30
% mycelium growth relative to the control ([14]; V8 medium): 0%
mycelium growth ([14]; V8 medium, control 2.9 cm): 0 cm
EFFICACY W (Abbot) ([14]; control W=0, no growth W=100): 100
Efficacy % [9]: 22.86%
Erwinia sp. bacterial growth [9]: 2.7 mm
Efficacy Sclerotinia sclerotiorum [1]: 4.32 scale 0-10
Efficacy Phoma lingam [2]: 3.42 scale 0-10
The Thousand Grain Weight (TGW) [3]: 5.34 g
Bulk density [3]: 0.65 kg/L
Yield [3]: 25.54 dt/ha
Biomass [3]: 112.50 dt/ha
Efficacy Zymoseptoria tritici [4]: 4.32 scale 0-10
Bulk density [5]: 0.63 kg/L
The Thousand Grain Weight (TGW) [5]: 43.60 g
Yield [5]: 66.33 dt/ha
Biomass [5]: 147.50 dt/ha
Efficacy Peronospora manshurica [6]: 3.32 scale 0-10
Efficacy Colletotrichum spp. [7]: 1.76 scale 0-10
Bulk density [8]: 0.627 kg/L
Yield [8]: 38.26 dt/ha
Biomass [8]: 156.7 dt/ha
The Thousand Grain Weight (TGW) [8]: 204.0 g
% mycelium growth relative to the control ([15]; V8 medium): 40%
mycelium growth ([15]; V8 medium, control 8.6 cm): 3.4 cm
EFFICACY W (Abbot) ([15]; control W=0, no growth W=100): 60
% mycelium growth relative to the control ([16]; V8 medium): 100%
mycelium growth ([16]; V8 medium, control 8.6 cm): 8.6 cm
EFFICACY W (Abbot) ([16]; control W=0, no growth W=100): 0
% mycelium growth relative to the control ([17]; V8 medium): 0%
mycelium growth ([17]; V8 medium, control 1.9 cm): 0 cm
EFFICACY W (Abbot) ([17]; control W=0, no growth W=100): 100
% mycelium growth relative to the control ([18]; V8 medium): 30%
mycelium growth ([18]; V8 medium, control 5.4 cm): 1.6 cm
EFFICACY W (Abbot) ([18]; control W=0, no growth W=100): 70
% mycelium growth relative to the control ([19]; V8 medium): 100%
mycelium growth ([19]; V8 medium, control 8.6 cm): 8.6 cm
EFFICACY W (Abbot) ([19]; control W=0, no growth W=100): 0
% mycelium growth relative to the control ([20]; V8 medium): 77%
mycelium growth ([20]; V8 medium, control 8.6 cm): 6.6 cm
EFFICACY W (Abbot) ([20]; control W=0, no growth W=100): 23
% mycelium growth relative to the control ([21]; V8 medium): 33%
mycelium growth ([21]; V8 medium, control 5.4 cm): 1.8 cm
EFFICACY W (Abbot) ([21]; control W=0, no growth W=100): 67
% mycelium growth relative to the control ([22]; V8 medium): 0%
mycelium growth ([22]; V8 medium, control 5.4 cm): 0 cm
EFFICACY W (Abbot) ([22]; control W=0, no growth W=100): 100
% mycelium growth relative to the control ([23]; V8 medium): 100%
mycelium growth ([23]; V8 medium, control 8.6 cm): 8.6 cm
EFFICACY W (Abbot) ([23]; control W=0, no growth W=100): 0
% mycelium growth relative to the control ([24]; V8 medium): 56%
mycelium growth ([24]; V8 medium, control 3.9 cm): 2.2 cm
EFFICACY W (Abbot) ([24]; control W=0, no growth W=100): 44
